One assay addresses T1, human TRPA1 (Homo sapiens, UniProt O75762).
T1 construct: expressed in transfected cells; host or cells: HEK-293
As to the kind of experiment: Screening on receptors TRPA1 (Fluo-8 calcium fluorescence, FLIPR, HEK-293 cells). Type of assay: cell-based. To be noted: for EC50: HEK-293 cells stably transfected with human TRPA1, agonist, normalised to spilanthol EC100, elemi oil molarity assumes molecular weight of elemol; for agonist activity on TRPA1 compared to spilanthol (reference): HEK-293 cells with human TRPA1. As to the method: The following are the test protocols used in determining whether fragrance ingredients show a response on the TRPA1 and TRPV1 receptors which are associated with tingling and warming sensations respectively. In all cases, the reaction is measured by fluorescence imaging using high throughput screening equipment.
Method for Screening on Receptors TRPA1:
HEK-293 (Human Embryonic Kidney) cells stably transfected with human TRPA1 were grown in a culture medium of EMEM (medium Essential Medium Eagle with Earl's salts balanced salt solution (Lonza catalogue No BE12-125F), 5 mL of 200 mM Ultraglutamine 1 (Lonza Catalogue No BE17-605E/U1), 5 mL of 100× Penicillin/Streptomycin (Lonza Catalogue No DE17-602E) 50 mL of Fetal bovine serum (Euroclone Cat No ECS0180L) 2 mL of 100 mg/mL Genticin sulphate (G418 sulphate InvivoGen CatAnt-gn-5).
10,000 cells/well were seeded in a 384 MTP in complete medium. Then, after 24 hours, the culture medium was manually removed. The cells were loaded with 20 μL/well of 0.5× Fluo-8 NW dye in standard Tyrode's buffer (Screen Quest™ Fluo-8 No wash Calcium assay kit supplied by AAT Bioquest catalogue No 26316). The plate was incubated for 1 hour at room temperature in the dark. 10 μL/well of test chemaesthetic agents were injected and controlled with the FLIPR^TETRA (Molecular Devices). The emitted fluorescence signal at 520 nm was recorded for 3 minutes. The compound multiwall plate contained the samples at 8 different doses in quadruplicate data points. Dose response of the samples were performed starting from 100 mM concentration in 100% DMSO with a serial dilution of 1:2 and then diluted in assay buffer at the final concentration of 100 μM, 50 μM, 25 μM, 12.5 μM, 6 μM, 3 μM, 1.5 μM, and 0.7 μM.
In the compound plate were also present a dose response of the reference agonist at 8 concentrations and in duplicate. Spilanthol was the reference agonist for TRPA1 in this study. These reference controls dosed as 16 wells (duplicates for each concentration) of reference agonist at ECioo corresponded to the MAX signal response (100% activity).
There were also 16 wells of blanks, i.e. assay buffers without either a test sample or reference compound which corresponded to the MIN signal response (0% activity). MAX and MIN controls were used for data analysis (RZ' calculation) and normalization of compound activity.
For data analysis the response value was calculated as the maximum signal of the kinetic trace after the injection minus the median of the points before injection and multiplied by the normalization factor (NF). The normalisation factor was the baseline mean of all wells in the plate divided by the baseline of a specific well.
To calculate the % of activity of the sample the response value was normalized versus MAX signal controls and MIN Signal controls to obtain the activity % according to the following formula: […]
The normalized data in percent activity were then used to perform curve fitting and EC50 calculation corresponding to the concentration that gave 50% of activation of the receptor (within a curve fitting program within the data analysis software).

The subject of assay [1] is tingling sensation in the nose. To be noted: 3% in Triethyl Citrate (TEC); panel of 80 subjects; scale 0 to +100.
Protocol: Comparison of tingling effect between isopulegol and menthoxypropanediol
A panel of 80 subjects was selected to take part in a comparative test between isopulegol (available as Coolact (registered trademark) P) and menthoxypropanediol (CAS 87061-04-9, available as Coolact (registered trademark) 10).
The samples of isopulegol and menthoxypropanediol were prepared by dilution to 3% in Triethyl Citrate (TEC).
The subjects had to score whether they perceived a tingling sensation in the nose, on a scale of 0 (no sensation) to +100 (extremely tingling).
Assay [2] has as its system warming perception in the nose. As to the kind of experiment: Perception test for warming agents (panel smells samples; rating and ranking). Type of assay: in vivo. To be noted: panel of 20 subjects; for Mean rank (less warming = rank 1, more warming = rank 4) / Nemenyi multiple comparison test of warming ranking vs reference capsaicin: 1% in TEC; for Mean rank (less warming = rank 1, more warming = rank 4) / warming perception in the nose (rating), compared to the reference capsaicin: smelled; for warming perception in the nose (rating), compared to the reference capsaicin: 1% in Triethyl Citrate (TEC), scale 0 to 100, ANOVA and Student's t-test.

Another assay has as its target T2, human TRPV1 (Homo sapiens, UniProt Q8NER1).
T2 construct: expressed in transfected cells; host or cells: CHO-K1
In words: Screening on receptors TRPV1 (fluorescence imaging, CHO-K1 cells). Type of assay: cell-based. To be noted: for agonist activity on TRPV1 compared to capsaicin (reference): CHO-K1 cells with human TRPV1.

The test system of assay [3] is tingling perception in the nose. In words: Perception test for tingling agents (panel smells samples; rating and ranking). It is filed as in vivo. To be noted: panel of 20 subjects, smelled. As to the method: The reference spilanthol is contained in jambu and known for its tingling effect on the skin/the tongue (U.S. Pat. No. 9,890,567; J. Paulraj et al., Advances in Pharmacological Sciences, Vol. 2013, Article ID 510298, 22 pages). The samples were prepared as solutions of the pure raw materials at 1% in Triethyl Citrate (TEC), and portions decanted into small jars for testing. In a first part of the evaluation, the subjects of the panel smell the samples one by one and rate them on the following scale: tingling perception in the nose: 0 (not at all) to 100 (very strong sensation). In a second part of the evaluation, the subjects of the panel rank the […] agents from the less tingling agent (rank 1) to the more tingling agents (rank 4). The mean values obtain for the ranking where as follows: […]

T2 sequence (Q8NER1 whole entry): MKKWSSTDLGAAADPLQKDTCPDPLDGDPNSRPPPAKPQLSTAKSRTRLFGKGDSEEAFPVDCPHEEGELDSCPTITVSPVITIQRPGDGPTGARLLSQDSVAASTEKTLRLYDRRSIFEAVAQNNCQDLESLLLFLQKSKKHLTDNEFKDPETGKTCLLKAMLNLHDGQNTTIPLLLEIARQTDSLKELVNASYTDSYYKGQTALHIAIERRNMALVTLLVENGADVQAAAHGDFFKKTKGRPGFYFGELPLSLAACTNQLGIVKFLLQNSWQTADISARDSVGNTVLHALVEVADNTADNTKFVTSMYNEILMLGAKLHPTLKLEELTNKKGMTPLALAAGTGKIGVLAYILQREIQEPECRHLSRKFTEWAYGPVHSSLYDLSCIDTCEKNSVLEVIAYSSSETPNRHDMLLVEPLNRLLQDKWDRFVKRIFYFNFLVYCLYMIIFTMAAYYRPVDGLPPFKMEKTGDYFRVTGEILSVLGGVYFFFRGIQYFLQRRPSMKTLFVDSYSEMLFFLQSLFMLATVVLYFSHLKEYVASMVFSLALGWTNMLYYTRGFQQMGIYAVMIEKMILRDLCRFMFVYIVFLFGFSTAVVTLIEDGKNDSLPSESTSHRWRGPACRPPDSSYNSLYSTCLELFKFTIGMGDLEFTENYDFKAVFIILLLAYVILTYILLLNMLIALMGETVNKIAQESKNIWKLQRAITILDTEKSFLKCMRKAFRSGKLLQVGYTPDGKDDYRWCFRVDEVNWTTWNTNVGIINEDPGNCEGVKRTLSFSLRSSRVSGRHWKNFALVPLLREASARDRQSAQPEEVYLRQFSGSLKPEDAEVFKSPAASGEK
T1 sequence (O75762 whole entry): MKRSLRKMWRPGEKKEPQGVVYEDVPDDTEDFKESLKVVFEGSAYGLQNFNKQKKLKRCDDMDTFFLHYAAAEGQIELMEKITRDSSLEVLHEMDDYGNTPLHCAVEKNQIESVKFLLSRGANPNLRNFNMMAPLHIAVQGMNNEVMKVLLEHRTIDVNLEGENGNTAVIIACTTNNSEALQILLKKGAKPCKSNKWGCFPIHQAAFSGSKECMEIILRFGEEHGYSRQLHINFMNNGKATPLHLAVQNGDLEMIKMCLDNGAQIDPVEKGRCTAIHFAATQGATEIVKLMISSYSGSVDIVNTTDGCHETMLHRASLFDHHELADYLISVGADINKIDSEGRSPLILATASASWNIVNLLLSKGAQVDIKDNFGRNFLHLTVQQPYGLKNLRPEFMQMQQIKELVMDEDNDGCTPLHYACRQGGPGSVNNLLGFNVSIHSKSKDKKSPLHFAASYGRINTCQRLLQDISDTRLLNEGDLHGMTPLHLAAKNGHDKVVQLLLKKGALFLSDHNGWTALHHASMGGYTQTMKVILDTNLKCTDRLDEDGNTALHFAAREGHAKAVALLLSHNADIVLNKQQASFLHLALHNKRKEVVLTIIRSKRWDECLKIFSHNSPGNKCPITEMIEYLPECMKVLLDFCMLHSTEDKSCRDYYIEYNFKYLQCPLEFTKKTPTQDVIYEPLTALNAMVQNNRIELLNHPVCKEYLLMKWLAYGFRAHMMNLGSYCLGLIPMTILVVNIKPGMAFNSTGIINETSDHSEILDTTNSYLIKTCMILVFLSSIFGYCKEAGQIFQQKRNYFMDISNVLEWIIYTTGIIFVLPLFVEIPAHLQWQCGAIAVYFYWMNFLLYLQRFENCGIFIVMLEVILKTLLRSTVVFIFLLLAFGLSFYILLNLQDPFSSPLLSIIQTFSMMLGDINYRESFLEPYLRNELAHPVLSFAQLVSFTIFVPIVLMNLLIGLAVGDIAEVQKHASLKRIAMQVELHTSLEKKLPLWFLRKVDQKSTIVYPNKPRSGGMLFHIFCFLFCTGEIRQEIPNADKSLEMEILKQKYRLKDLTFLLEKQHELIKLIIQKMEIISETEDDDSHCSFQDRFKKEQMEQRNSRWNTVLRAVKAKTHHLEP

In the case of `CC(C)[C@@H]1CC[C@@H](C)C[C@H]1OCC(O)CO` (stereo partly shown) [menthoxypropanediol], on human TRPA1, the EC50 turned out to be 200 µM and the “agonist activity on TRPA1 compared to spilanthol (reference)” value is reported as “comparable agonists for TRPA1”. In addition, in assay [1], the “tingling sensation in the nose, isopulegol compared with menthoxypropanediol” value was “lower tingling sensation”.
With `C=C(C)[C@@H]1CC[C@@H](C)C[C@H]1O` [isopulegol], at human TRPA1, the EC50 stood at 57 µM and the “agonist activity on TRPA1 compared to spilanthol (reference)” value is “comparable agonists for TRPA1”. In assay [1], the “tingling sensation in the nose, isopulegol compared with menthoxypropanediol” value was “improved tingling perception”.
`COc1cc(CNC(=O)CCCC/C=C/C(C)C)ccc1O` [capsaicin, reference compound]: in assay [2], the “Mean rank (less warming = rank 1, more warming = rank 4)” value was 1.650.
On to `CCOCc1ccc(O)c(OC)c1` [vanillyl ethyl ether], for which the “agonist activity on TRPV1 compared to capsaicin (reference)” value at human TRPV1 is given as “weaker agonists for TRPV1 than capsaicin”. Also, in assay [2], the “Nemenyi multiple comparison test of warming ranking vs reference capsaicin” value is “significantly more warming”; the “Mean rank (less warming = rank 1, more warming = rank 4)” value was determined as 2.450; the “warming perception in the nose (rating), compared to the reference capsaicin” value is recorded as “improved warming perception”.
Consider `CCCCOCc1ccc(O)c(OC)c1` [vanillyl butyl ether], for which, at human TRPV1, the EC50 is 7.58 µM and the “agonist activity on TRPV1 compared to capsaicin (reference)” value is listed as “weaker agonists for TRPV1 than capsaicin”. Further, in assay [2], the “Nemenyi multiple comparison test of warming ranking vs reference capsaicin” value is reported as “significantly more warming”; the “Mean rank (less warming = rank 1, more warming = rank 4)” value amounted to 2.925; the “warming perception in the nose (rating), compared to the reference capsaicin” value was “improved warming perception”.
Consider `C/C=C/C=C\CC/C=C/C(=O)NCC(C)C` [spilanthol], for which the “Mean rank (less tingling = rank 1, more tingling = rank 4)” value in assay [3] (1% in TEC) is 1.150. Also, the “tingling perception in the nose (rating), compared to the reference spilanthol” value in assay [3] (1% in Triethyl Citrate (TEC), scale 0 to 100, ANOVA and Student's t-test) is recorded as “little effect at all”. At human TRPA1, the EC50 came out at 35.5 µM.

Source of the values: patent US20210236678A1, “HOUSEHOLD PRODUCT DELIVERING WARMING AND/OR TINGLING SENSATIONS” (TAKASAGO INTERNATIONAL CORPORATION, priority 2016, published 2021).
